PMC6362038, “Secondary structures and cell-penetrating abilities of arginine-rich peptide foldamers” (Scientific Reports, 2019)
Numbered stars: 1 amine (or outer) side, 2 acyl side, 3 side chain; on linkers, the order of the positions; unused ones are H or OH. Square brackets hold non-standard residues; d marks the D form. Peptide text beside a SMILES is read from it. * marks the point of attachment. 5FAM = O=C1OC2(c3ccc(O)cc3Oc3cc(O)ccc32)c2ccc(C(=O)*)cc21; X1 = CO[C@H]1CC(N[*:1])(C(=O)[*:2])C[C@@H]1OC; αMeL = CC(C)C[C@](C)(N)C(=O)O; Ac5c = NC1(C(=O)O)CCCC1

How the values were obtained:
[1] = Resistance to protease digestion with pronase; type: in vitro ADME, Streptomyces griseus; conditions: 10 µM peptide in 2.5 × 10^−6 w/v% pronase/PBS, 37 °C, RP-HPLC, α-CHCA internal standard, read-out: intact peptide after incubation with pronase
Description: (§1) Next, we examined the stability of peptides against protease digestion using trypsin (Fig. 4a) and pronase (Fig. 4b). One of the advantages of peptide foldamers containing dAAs is their high resistance to degradation by proteases[38]–[40]. Trypsin is a serine protease that cleaves amide bonds at the C terminus of cationic amino acids such as Arg and lysine. Pronase is a non-specific protease mixture produced in the culture supernatant of Streptomyces griseus. Ac5c, Ac5c^dOM, (αMe)Leu, and Leu peptides were incubated with trypsin or pronase for 1, 2, and 4 h, and then rate of intact peptide was evaluated by RP-HPLC using α-cyano-4-hydroxycinnamic acid (α-CHCA) as an internal standard. Leu peptide was promptly degraded by both trypsin and pronase, and reached 0% intact peptide after 4 h incubation in a similar manner to Arg peptide reported previously[24],[25]. On the other hand, approximately 80% of Ac5c, Ac5c^dOM, and (αMe)Leu peptides remained intact even after 4 h incubation. Introduction of dAAs into peptides markedly elevated resistance to protease digestion, whether or not peptides formed stable helical structures. In other words, peptides composed of only natural α-amino acids were easily degraded by proteases independently of their peptide secondary structures.
(§2) One-hundred microliters of peptide solution (10 µM) in 2.5 × 10^−6 w/v% trypsin or pronase/phosphate buffer saline (PBS) was incubated at 37 °C for 0, 1, 2, and 4 h. After each incubation time, 250 µL of 1% TFA/PBS solution was added to inactivate the proteases, and 50 µL of 1/2 diluted saturated α-CHCA solution was added as an internal standard, followed by HPLC analysis, which was performed using the above-mentioned conditions.

[2] = Circular dichroism, R value of secondary structure; type: physicochemical; conditions: CD, peptide 24 µM
Experimental: The conformations of peptides were analyzed by circular dichroism (CD) in pH 7.3 4-(2-hydroxyethyl)-1-piperazineethanesulfonic acid (HEPES) buffer (Fig. 3a), 40% 2,2,2-trifluoroethanol (TFE)/pH 7.3 HEPES buffer (Fig. 3b), and 75% TFE/pH 7.3 HEPES buffer (Fig. 3c). Negative maxima at 205–209 nm (π → π*) and 222–225 nm (n → π*) were diagnostic of a right-handed (P) helical structure[31]–[33]. The ratio of R (θπ → π*/θn → π*) has been used as a parameter to distinguish an α-helical structure from a 3_10-helical structure (i.e., R ≈ 1: α-helix; R < 0.4: 3_10-helix) (Table S1)[34],[35]. Helical content (helicity) of peptides was estimated from the intensity of θn → π* values. A negative maximum at 195–200 nm (π → π*) and a weak positive maximum at 217 nm (n → π*) were diagnostic of a random coil structure. […] By adding TFE to HEPES buffer, (αMe)Leu peptide formed a complete right-handed (P) helical structure in a mixture of α- and 3_10-helices (R = 0.57 and 0.56 in Figs 3b and […], respectively). The dominant structures of Ac5c and Leu peptides changed by increased the rate of TFE to eventually be α-/3_10-helices (R = 0.52) and 3_10-helix (R = 0.30), respectively (Fig. 3c). […] Cbz-[L-Leu-L-Leu-(S,S)-Ac5c^dOM]3-OMe was reported to form a right-handed (P) helical structure in 50% TFE/H2O[37]. L-Leu might contribute to stabilization of the peptide helical secondary structure as well as (S,S)-Ac5c^dOM. Destabilization of the peptide helical secondary structure by L-Arg might be stronger than stabilization of it by (S,S)-Ac5c^dOM. Taken together with the results of CD spectra (Fig. 3), in which helicity of peptides was estimated from the intensity of θn → π* values, stability in the helicity of the peptides in the current study was as follows: (αMe)Leupeptide>Ac5cpeptide≈Leupeptide>Ac5c^dOMpeptide≈Argpeptide.
Figure 3 CD spectra of peptides in (a) HEPES buffer, (b) 40% TFE/HEPES buffer, and (c) 75% TFE/HEPES buffer. Peptide concentration: 24 µM.
Optical rotation [α]^rtD was measured using a Jasco DIP-370 polarimeter (JASCO, Tokyo, Japan) using a 0.5 dm cell. Infrared (IR) spectra were recorded using a Shimadzu IR Affinity-1 spectrometer (Shimadzu Corporation, Kyoto, Japan) for conventional measurement (KBr). CD spectra were recorded using a Jasco J-720W spectropolarimeter (JASCO) with a 1.0 mm path length cell. ^1H NMR (400 MHz) and ^13C NMR (100 MHz) spectra were determined using a JEOL AL 400 spectrometer (JEOL Ltd, Tokyo, Japan). Fast atom bombardment (FAB)-MS was measured using a JEOL JMS-700N (JEOL). MALDI-TOF-MS spectra were recorded using a Bruker Ultrax spectrometer (Bruker Daltonics, Fermont, CA). Piperidine was purchased from Tokyo Chemical Industry Co., Ltd. (Tokyo, Japan). Fmoc-L-Arg(Pbf)-OH, Fmoc-Gly-OH, Fmoc-L-Leu-OH, and CLEAR-Amide resin were purchased from the Peptide Institute., Inc. (Osaka, Japan). Fmoc-(S)-(αMe)Leu-OH was obtained from Nagase & Co., Ltd. (Kyoto, Japan). Fmoc-Ac5c-OH was purchased from Watanabe Chemical Industries, Ltd. (Hiroshima, Japan). HATU, HBTU, HOAt, and HOBt were from AAPPTec (Louisville, KY). COMU was from Novabiochem (Tokyo, Japan). CF and Dulbecco’s modified Eagle’s medium (DMEM) were obtained from Sigma-Aldrich Co. (St. Louis, MO). diisopropylethylamine (DIPEA) and heparin were purchased from Wako Pure Chemicals Co., Inc. (Osaka, Japan). Diethyl ether was from Kanto Chemical Co., Inc. (Tokyo, Japan). Trifluoroacetic acid (TFA) was obtained from Nacalai Tesque, Co., Inc. (Kyoto, Japan). Hoechst 33342 and a Cell counting kit-8 were purchased from Dojindo Laboratories (Kumamoto, Japan). LysoTracker Red was from Molecular Probes (Eugene, OR).
Table S1. R values (qπ → π*/qn → π*) of synthetic peptides.
R value (qπ → π*/qn → π* )
HEPES 40% TFE/HEPES 75% TFE/HEPES

[3] = Resistance to protease digestion with trypsin; type: in vitro ADME; conditions: 10 µM peptide in 2.5 × 10^−6 w/v% trypsin/PBS, 37 °C, RP-HPLC, α-CHCA internal standard, read-out: intact peptide after incubation with trypsin
Description: as §1, §2

[4] = pH 7.3 HEPES buffer, R ≈ 1 α-helix, R < 0.4 3_10-helix

CC(C)C[C@](C)(NC(=O)[C@H](CCCNC(=N)N)NC(=O)[C@H](CCCNC(=N)N)NC(=O)[C@](C)(CC(C)C)NC(=O)[C@H](CCCNC(=N)N)NC(=O)[C@H](CCCNC(=N)N)NC(=O)[C@](C)(CC(C)C)NC(=O)[C@H](CCCNC(=N)N)NC(=O)[C@H](CCCNC(=N)N)NC(=O)CNC(=O)c1ccc2c(c1)C(=O)OC21c2ccc(O)cc2Oc2cc(O)ccc21)C(N)=O [(αMe)Leu peptide] (5FAM-GRR[αMeL]RR[αMeL]RR[αMeL]-NH2)
remaining at 4 h, 10 µM [1]: ~80%
R value (θπ → π*/θn → π*) ([2]; 40% TFE/pH 7.3 HEPES buffer): 0.57
R value (θπ → π*/θn → π*) ([2]; 75% TFE/pH 7.3 HEPES buffer): 0.56
R value (θπ → π*/θn → π*) [2, 4]: 0.45
remaining at 4 h, 10 µM [3]: ~80%

N=C(N)NCCC[C@H](NC(=O)CNC(=O)c1ccc2c(c1)C(=O)OC21c2ccc(O)cc2Oc2cc(O)ccc21)C(=O)N[C@@H](CCCNC(=N)N)C(=O)NC1(C(=O)N[C@@H](CCCNC(=N)N)C(=O)N[C@@H](CCCNC(=N)N)C(=O)NC2(C(=O)N[C@@H](CCCNC(=N)N)C(=O)N[C@@H](CCCNC(=N)N)C(=O)NC3(C(N)=O)CCCC3)CCCC2)CCCC1 [Ac5c peptide] (5FAM-GRR[Ac5c]RR[Ac5c]RR[Ac5c]-NH2)
remaining at 4 h, 10 µM [1]: ~80%
R value (θπ → π*/θn → π*) ([2]; 40% TFE/pH 7.3 HEPES buffer): 0.61
R value (θπ → π*/θn → π*) ([2]; 75% TFE/pH 7.3 HEPES buffer): 0.52
R value (θπ → π*/θn → π*) [2, 4]: No significant maxima
remaining at 4 h, 10 µM [3]: ~80%

CO[C@H]1CC(NC(=O)[C@H](CCCNC(=N)N)NC(=O)[C@H](CCCNC(=N)N)NC(=O)C2(NC(=O)[C@H](CCCNC(=N)N)NC(=O)[C@H](CCCNC(=N)N)NC(=O)C3(NC(=O)[C@H](CCCNC(=N)N)NC(=O)[C@H](CCCNC(=N)N)NC(=O)CNC(=O)c4ccc5c(c4)C(=O)OC54c5ccc(O)cc5Oc5cc(O)ccc54)C[C@H](OC)[C@@H](OC)C3)C[C@H](OC)[C@@H](OC)C2)(C(N)=O)C[C@@H]1OC [Ac5c^dOM peptide] (5FAM-GRR[X1]RR[X1]RR[X1]-NH2)
remaining at 4 h, 10 µM [1]: ~80%
R value (θπ → π*/θn → π*) ([2]; 40% TFE/pH 7.3 HEPES buffer): No significant maxima
R value (θπ → π*/θn → π*) ([2]; 75% TFE/pH 7.3 HEPES buffer): No significant maxima
R value (θπ → π*/θn → π*) [2, 4]: No significant maxima
remaining at 4 h, 10 µM [3]: ~80%
